Data as given in US20190111040A1, “IN VIVO AMELIORATION OF ENDOGENOUS ANTI-TUMOR AUTOANTIBODIES TARGETING SURFACE TUMOR ANTIGENS VIA LOW-DOSE P4N” (THE JOHNS HOPKINS UNIVERSITY, priority 2016, published 2019).

Assays:
[1] = tested on: THP-1 cells; assay: Effect of inhibitors on Activin A-induced BAFF expression in THP-1 cells; assay type: cell-based; details: THP-1 cells treated with inhibitor and P4N
Procedure: (§1) FIGS. 5A-5F depict the expression of Activin A/BAFF induced by P4N treatments. (A) P4N induced Activin A or BAFF expression in human PBMCs as determined by RT-PCR. S1-S5 display different individual blood samples collected from 5 different human donors; N, no treatment; P, P4N-treatment (3 μM). The change in Activin A and BAFF expression (mean of 5 patients) relative to the control (NC) is plotted as a histogram (B) The effect of increasing dosages of P4N for 12 h on mRNA and protein levels of Activin A or BAFF in THP-1 cells was analyzed by RT-PCR and ELISA. (C) The effect of 6 μM P4N on mRNA and protein levels of Activin A or BAFF in THP-1 cells was determined at a different time period. (D) The effect of different inhibitors on Activin A-induced BAFF expression was examined. The expression of BAFF mRNA in inhibitor-treated THP-1 cells was determined by RT-PCR, and (E) BAFF protein secretion was measured by ELISA. (F) The effect of THP-1 conditioned media on the proliferation of Raji cells and OKT3 hybridoma cells were determined. Media were harvested, in which THP-1 cells were pre-treated without inhibitor (2) or with SB431542 (3), A83-01 (4), SIS3 (5), SB203580 (6) or PD98059 (7) and then treated with P4N for 12 h. The results are expressed as % viable cells relative to the control (NC, media from untreated THP-1 cells). All values are the means of triplicate samples±SEM. The significant differences in the results of inhibitor and P4N-treated groups compared with the untreated group are indicated by ***P<0.001.
Reverse transcription PCR. Human PBMCs or THP-1 cells were treated with P4N, and then the mRNA expression of INHBA and BAFF in these cells was measured by reverse transcription PCR. Briefly, total cellular RNA was extracted with Trizol reagent (Invitrogen) and reverse-transcribed into cDNA using the Superscript RT-kit (Invitrogen). The cDNA of INHBA and BAFF were then amplified by PCR. GAPDH cDNA in the samples was used to normalize the loading amounts in each reaction. Finally, PCR products were resolved by electrophoresis on 2% agarose gels and visualized with ethidium bromide.

[2] = tested on: Raji or OKT3 cells; assay: Cell proliferation assay with THP-1-conditioned media; assay type: cell-based; details: conditioned medium from THP-1 cells treated with P4N and the inhibitor
Procedure: as §1
Cell proliferation assay. Raji or OKT3 cells (1×10^4/well) were seeded and treated with THP-1-conditioned media. After 48 h the number of viable cells was determined by MTT assay. The indices of cell proliferation were calculated as previously described.

[3] = tested on: THP-1 cells; assay: TNF-α, IL-8 and Activin A ELISA in THP-1 cells with bestatin and P4N; assay type: cell-based; details: 10 μM bestatin 2 h, then 3 μM P4N
Procedure: FIGS. 6A-6E show P4N directly regulated LTA4H to induce monocyte inflammation. (A) P4N (orange) was docked with LTA4H by iGEMDOCK software (gemdock.life.nctu.edu.tw/dock/igemdock.php). RB3041 (Pink) is a small molecule inhibitor that identifies the active site of LTA4H. The amino acids that potentially interact with P4N are noted. The effects of P4N and bestatin on monocytes and their expression of (B) LTB4, (C) TNF-α, (D) IL-8, or (E) Activin A were determined and shown for different times. All values were expressed as the mean±SEM. **P<0.05, group P4N vs group (P4N+bestatin).
ELISA assays. THP-1 cells (1×10^6 cells/ml/well) in a 24-well culture plate were pretreated with 10 μM bestatin (a LTA4H inhibitor, Sigma-Aldrich) for 2 h and then treated with 3 μM P4N for various time intervals. The levels of LTB4 in the culture media were determined by the LTB4 (Enzo Life Sciences, Farmingdale, N.Y.) (R&D) ELISA Kits. The amount of TNF-α, IL-8 and Activin A in cultured media were measured in a similar manner.

[4] = tested on: LTB4 production; details: reference (32); cited from earlier work

| Structure (SMILES) | BAFF transcription and protein expression [1] | proliferative activity of conditioned medium on Raji or OKT3 cells [2] | further results |
| --- | --- | --- | --- |
| Cc1cccc(-c2nn(C(=S)Nc3ccccc3)cc2-c2ccnc3ccccc23)n1 [A83-01] | significantly reduced | lost its activity | – |
| CC(C)C[C@H](NC(=O)[C@@H](O)[C@H](N)Cc1ccccc1)C(=O)O [Bestatin] | – | – | P4N-induced expression of Activin A [3]: inhibited; expression of TNF-α and IL-8 [3]: not suppressed |
| CC(Cc1ccc(O)c(O)c1)C(C)Cc1ccc(O)c(O)c1 (centres unmarked) [NDGA, Nordihydroguaiaretic acid] | – | – | LTB4 production [4]: inhibits LTB4 production |
| COc1cccc(-c2cc(=O)c3ccccc3o2)c1N [PD98059] | had fewer effects | – | – |
| C[S+]([O-])c1ccc(-c2nc(-c3ccncc3)c(-c3ccc(F)cc3)[nH]2)cc1 (centres unmarked) [SB203580] | had fewer effects | – | – |
| NC(=O)c1ccc(-c2nc(-c3ccc4c(c3)OCO4)c(-c3ccccn3)[nH]2)cc1 [SB431542] | significantly reduced | lost its activity | – |
| COc1cc2c(cc1OC)CN(C(=O)/C=C/c1c(-c3ccccc3)n(C)c3ncccc13)CC2 [SIS3] | significantly reduced | lost its activity | – |
